Source: patent publication US5688767A, “Treatment of endotoxin-associated disorders with cationic peptides” (priority 1996, dated 1997)
Converted amounts (≈) assume the structure as drawn.

What was measured:
E. cloacae = test: microbe, parasite or virus in culture; assay type: cell-based, Enterobacter cloacae
Experimental: (§1) The minimum inhibitory concentrations of (MIC) of CEME, CEMA and melittin were determined for a number of different bacteria (Table 2). Briefly, cells were grown overnight at 37° C. in LB-S (Luria broth without any salt supplement) and diluted one in 10,000 in the same medium to give concentrations of about 10^4 to 10^5 CFU/ml. The broth dilutions were set up in a 96 well microtiter plate by putting 200 μl of LB-S containing the initial concentration of antibiotic or compound in column 1 and 100 μl of the same medium in columns 2-12. The compounds were diluted by taking 100 μl of broth from column 1 and mixing it with column 2, resulting in a one in two dilution. This was continued to column 10. Finally, 10 μl of bacteria were pipetted into columns 1-11, and the plates incubated overnight at 37° C. The next day the plates were scored for growth in the wells, and the MIC determined.
(§2) Bacteria included the Bort strain of E. coli (Bortolussi, et al., Inf. Immun., 25:293, 1979) that was originally derived from a case of neonatal meningitis, and which is therefore considered a relevant pathogenic strain to study, and the 0111:B4 strain of E. coli (kindly provided by Dr. D. Morrison) which is a standard source of endotoxin. (Kelly, et al., Inf. Immun., 59:4491, 1991). In addition, P. aeruginosa PA01 strain H103, P. aeruginosa M2, P. aeruginosa K799, Eschericha coli UB 1005, Enterobacter cloacae 218S, Salmonella typhimurium MS7953s, Klebsiella pneumoniae ATCC 13883, Xanthomonas maltophilia ATCC 13637, and Acinetobacter calcoacetious 8193 were employed. LPS was obtained from E. coli Bort by the technique of Westphal and Jann, (Westphal, et al., Acad. Press, Inc. NY., 5:83) and from P. aeruginosa H103 by the method of Darveau and Hancock, (Darveau, et al., J. Bacteriol, 155:831, […]). E. coli 0111:B4 LPS was purchased from Sigma.

[1] = system: LPS-induced TNF in RAW 264.7 macrophage cells; test: Inhibition of LPS-mediated TNF induction in RAW 264.7 macrophages (L929 cytotoxicity readout); assay type: cell-based, murine; conditions: for Unit of TNF induced / Unit of TNF induced (% of control): 100 ng purified E. coli 0111:B4 LPS, 20 μg of peptide or polymyxin B; for block of induction of TNF: 20 μg/ml, E. coli 0111:B4 and E. coli Bort LPS; for block of LPS induction of TNF: added up to 60 minutes after LPS
Experimental: The effect of CEME and CEMA peptides on LPS-induced TNF in macrophages was examined. RAW 264.7 macrophage cells were grown by seeding 10^6 cells into a 162 cm^2 cell culture flask and incubated at 37° C., 5% CO2 for 1 week. RAW cell media (Dulbecco's Modified Eagle Medium with Hepes buffer 450 ml; 2.4 mM L-glutamine 3 ml (400 mM); Pen/Strep 3 ml (10^4 U/ml of Pen, 1 mg/ml strep); and 10% heat inactivated fetal bovine serum (FBS) 50 ml) was then completely removed from flasks. 10 mls of cell dissociation solution (Sigma) was added to each flask and incubated at 37° C. for 10 minutes. Cells were removed from flasks, diluted in RAW cell media and centrifuged for 6 minutes. The cell pellet was resuspended in 5 ml of media/flask used. […] cell suspension was removed and added to 400 μl of trypan blue and cells were counted using a hemocytometer. The cell suspension was diluted to 1×10^6cells/ml and 1 ml of suspension was added per well of a 24 well plate. The 24 well plates were incubated at 37° C., 5% CO2 overnight for use in the assay.
After an overnight incubation, the media was aspirated from all the wells. 100 μl of Lipopolysaccharide (LPS) was added at 100 ng/100 μl. CEME or CEMA was added at the desired concentration/100 μl to specified wells. […] The plates were then incubated for six hours at 37° C., 5% CO2. The supernatant was then removed from the wells and stored overnight at 4° C. For those wells in which whole bacteria were added directly to the wells, the supernatant was centrifuged in 0.2 μm filter eppendorf tubes for 5 minutes.
The supernatants were then used in cell cytotoxic L929 assay. The samples were transferred to 96 well plates. 50 μl of TNF media was added to all the wells in all the plates except to those wells in the first row. 10 μl of murine TNF standard (20 ng/ml) and 90 μl of TNF media was added in duplicate to the plate and diluted 1:2 down the plate to the second to last row. Test samples (75 μl), comprising of the supernatants from the RAW cell assays, were added to separate rows in duplicate and diluted 1:3 to the second to last rows.
TNF-sensitive L929 mouse fibroblast cells were grown by seeding 10^6 cells into a 162 cm^2 cell culture flask and left to grow for 1 week. L929 cells were removed from the flask with 10 mls of trypsin-EDTA/flask and incubated 3-5 minutes. Cell suspension was diluted and centrifuged for 6 minutes. The pellet was resuspended in 5 mls of fresh L929 media/flask and counted (same as RAW cells). Cell suspension was diluted to 10^6 cells/ml. 100 μl was used to inoculate each well of the 96 well plates with the supernatants. (L929 Growth Media was the same as RAW cell media except instead of FBS, 50 mls of 10% heat inactivated horse serum was utilized; TNF Assay Media was the same as RAW cell media except 4 μg/ml Actinomycin D was added.)
The plates were incubated at 37° C. at 5% CO2 for 2 days. The media was then aspirated and replaced with 100 μl of the dye MTT (0.5 mg/ml) in modified Eagle Medium without phenol red. The plates were then incubated at 37° C. at 5% CO2 for 3 hours. The dye was then removed and replaced with 100 μl of absolute ethanol. The plates were left at room temperature for 10-15 minutes to dissolve the formazan dye crystals.
The plates were read at 570 nm in a ELISA plate reader with 690 nm reference filter. One unit of TNF activity is defined as the amount required to kill 50% of the L929 cells. The TNF level in Units per ml therefore was the reciprocal of the dilution which led to a 50% killing of L929 cells. […]
The murine cell line RAW 264.7 was obtained from ATCC, (Rockville, Md.), and maintained and passaged as described previously (Kelly, et al., supra). TNF induction experiments with LPS were performed as described by Kelly, et al. (supra) Briefly, Dulbecco's modified Eagle medium was aspirated from RAW 264.7 cell grown overnight in 24 well tissue culture plates after seeding with 10^6 cell per ml per well and replaced with fresh medium. […]

E. coli = test: microbe, parasite or virus in culture; assay type: cell-based, Escherichia coli
Experimental: as §1, §2

[2] = strain 218S, Parent of 218R1 (Table 2)
[3] = strain UB1005, Parent of DC2 (Table 2)

| Compound | MIC (E. cloacae; [2]) | Unit of TNF induced [1] | Unit of TNF induced (% of control) [1] | block of induction of TNF [1] | block of LPS induction of TNF [1] | MIC (E. coli; [3]) | MIC (E. cloacae; Enterobacter cloacae 218S (Table 9)) | MIC (E. cloacae; strain 218R1, β-lactam resistant) | concentration of peptide that efficiently reduces LPS-induced TNF ([1]; 100 ng of E. coli 0111:B4 or E. coli Bort LPS, 6 hour) | reduction of TNF induction ([1]; 2 μg/ml of peptide, E. coli 0111:B4 LPS 100 ng/ml) | blockage of TNF induction, in words ([1]; 20-50 μg/ml of peptides, E. coli 0111:B4 LPS 100 ng/ml) | TNF produced by peptide alone ([1]; CEMA (20 μg) alone, no LPS) | MIC (E. coli; Escherichia coli 0111:B4) | MIC (E. coli; Escherichia coli Bort) | MIC (E. coli; Escherichia coli UB1005 (Table 9)) | MIC (E. coli; strain DC2, Polymyxin sensitive) | MIC (E. coli; strain SC9251, Parent of SC9252) | MIC (E. coli; strain SC9252, Polymyxin resistant) |
| --- | --- | --- | --- | --- | --- | --- | --- | --- | --- | --- | --- | --- | --- | --- | --- | --- | --- | --- |
| polymyxin B | 0.5 µg/mL | 573 ± 4 units/ml | 5.8% | approximately 100% | 81% | 0.5 µg/mL | – | – | – | – | – | – | – | – | – | – | – | – |
| CC[C@H](C)[C@H](NC(=O)CNC(=O)[C@@H](NC(=O)[C@H](CCCCN)NC(=O)[C@H](CCCCN)NC(=O)[C@H](Cc1ccccc1)NC(=O)[C@H](CC(C)C)NC(=O)[C@H](CCCCN)NC(=O)[C@H](Cc1c[nH]c2ccccc12)NC(=O)[C@@H](N)CCCCN)[C@@H](C)CC)C(=O)NCC(=O)N[C@@H](C)C(=O)N[C@H](C(=O)N[C@@H](CC(C)C)C(=O)N[C@@H](CCCCN)C(=O)N[C@H](C(=O)N[C@@H](CC(C)C)C(=O)N[C@H](C(=O)N[C@H](C(=O)NCC(=O)N[C@@H](CC(C)C)C(=O)N1CCC[C@H]1C(=O)N[C@@H](C)C(=O)N[C@@H](CC(C)C)C(=O)N[C@@H](CCCCN)C(=O)N[C@@H](CC(C)C)C(=O)N[C@H](C(=O)N[C@@H](CCCCN)C(=O)O)[C@@H](C)O)[C@@H](C)O)[C@@H](C)O)C(C)C)C(C)C [CEMA] | 2.8 µg/mL (≈ 0.913 µM) | 566 ± 69 units/ml | 5.8% | approximately 100% | 99% | 2.8 µg/mL (≈ 0.913 µM) | 4 µg/mL (≈ 1.3 µM) | 1.4 µg/mL (≈ 0.457 µM) | ≤ 5 µg/mL | more than 50% | almost complete blockage | 50 ± 3 units/ml | 4 µg/mL (≈ 1.3 µM) | 8 µg/mL (≈ 2.61 µM) | 4 µg/mL (≈ 1.3 µM) | 0.7 µg/mL (≈ 0.228 µM) | 1.4 µg/mL (≈ 0.457 µM) | 1.4 µg/mL (≈ 0.457 µM) |
